Our source for the IC50 values is patent publication US5686424A, “2-oxoethyl derivatives as immunosuppressants” (Miles Inc., priority 1995, dated 1997).

In the test the test system is NF-AT. Description: NF-AT Inhibition Assay Directed β-Galactosidase Expression in FGL-5 cells. As to conditions: 50% inhibition of NF-AT directed β-galactosidase activity in FGL-5 cells stimulated with phorbol dibutyrate and ionomycin; TABLE 3. The test is classed as cell-based. Put shortly: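 FGL-5 Jurkat cells (3 million cells/ml) carry NF-AT-site-driven lacZ. They were stimulated with phorbol dibutyrate plus ionomycin and incubated with compound 16-18 h at 37 °C, in duplicate wells with matched ethanol or DMSO vehicle controls. β-Galactosidase was read as fluorescence from 4-methylumbelliferyl-β-D-galactoside cleavage, giving percent inhibition.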
In general, IC50 refers to the concentration that gives 50% inhibition. High values mean weaker potency in that assay, low ones greater potency in that assay. The molecule `CC[C@H](C)[C@H](NC(=O)[C@@H]1CCCN1CC(=O)NC12CC3CC(CC(C3)C1)C2)C(=O)NCc1ccccc1` [Example 39, L-Isoleucine, N-[1-(2-Aminoadamant-1-yl-2-oxoethyl)-L-Prolyl] Benzylamide] had an IC50 of 41 µM.

With `CC[C@H](C)[C@H](NC(=O)[C@@H]1CCCN1CC(=O)C1CC2CC(C1C)C2(C)C)C(=O)NCc1ccccc1` (stereo partly drawn) [Example 41, L-Isoleucine, N-[1-[2-(2,6,6-Trimethyl-Bicyclo[3.1.1]hept-3-yl)-2-Oxoethyl]-L-Prolyl] Benzylamide], the IC50 was determined as 13 µM.

Consider `O=C(NCc1ccccc1)[C@H](COCc1ccccc1)NC(=O)[C@@H]1CCCN1CC(=O)C12CC3CC(CC(C3)C1)C2` [Example 62, L-Serine-(O-Benzyl Ether), N-[1-(2-Adamantan-1-yl-2-Oxoethyl)-L-Prolyl] Benzylamide], for which inhibition was half-maximal at 13 µM (IC50).

Take `O=C(CC(NC(=O)[C@@H]1CCCN1CC(=O)C12CC3CC(CC(C3)C1)C2)c1ccccc1)NCc1ccccc1` (stereo partly drawn) [Example 63, L-β-Phenylalanine, N-[1-(2-Adamantan-1-yl-2-Oxoethyl)-L-Prolyl] Benzylamide]: half-maximal inhibition (IC50) required 20 µM.

Regarding `CC[C@H](C)[C@H](NC(=O)[C@@H]1CCCN1CC(=O)C12CC3CC(CC(C3)C1)C2)C(=O)N[C@H](C)c1ccccc1` [Example 66, L-Isoleucine, N-[1-(2-Adamantan-1-yl-2-Oxoethyl)-L-Prolyl] alpha-(R)-methylbenzylamide], the midpoint of inhibition, the IC50, lay at 57 µM.

In turn, `CC[C@H](C)[C@H](NC(=O)[C@@H]1CCCN1CC(=O)NC1C2CC3CC(C2)CC1C3)C(=O)NCc1ccccc1` (stereo partly drawn) [Example 90, L-Isoleucine, N-[1-(Adamantan-2-ylcarbamoylmethyl)-L-Prolyl] Benzylamide] displayed an IC50 of more than 100 µM.

Consider `CC[C@H](C)[C@H](NC(=O)[C@@H]1CCCN1CC(=O)O[C@H](c1ccccc1)C(C)C)C(=O)NCc1ccccc1` [Example 92, L-Isoleucine, N-[1-(2-(2-Methyl-1-(S)-Phenyl-1-Propoxy)-2-Oxoethyl)-L-Prolyl] Benzylamide], for which the IC50 is 44 µM.

Consider `CC[C@H](C)[C@H](NC(=O)[C@@H]1CCCN1CC(=O)O[C@@H](c1ccccc1)C(C)C)C(=O)NCc1ccccc1` [Example 93, L-Isoleucine, N-[1-(2-(2-Methyl-1-(R)-Phenyl-1-Propoxy)-2-Oxoethyl)-L-Prolyl] Benzylamide], for which the IC50 was found to be 19 µM.
